Converted amounts (≈) assume the structure as drawn.

The MIC is the smallest concentration in the dilution series that meets the test's criterion for growth inhibition.

Test [1] relates to Staphylococcus aureus. The test is described as follows: Antibacterial activity against Staphylococcus aureus MTCC 096 assessed as zone of inhibition at 100 ug/ml after 14 hrs by cup plate method. Type of test: functional. The following applies: MTCC 096, 14 h, read-out: IZ.
Test [2] concerns Candida albicans. The test can be described thus: Antifungal activity against Candida albicans MTCC 227 assessed as zone of inhibition at 100 ug/ml after 30 hrs by cup plate method. Type of test: functional. Conditions: MTCC 227, 30 h, read-out: IZ.
For test [3], the system named is Bacillus subtilis. The test can be described thus: Antibacterial activity against Bacillus subtilis MTCC 441 after 14 hrs by serial dilution method. In kind it is functional. The following applies: MTCC 441, 14 h.
Test [4] relates to Salmonella typhi. The test can be described thus: Antibacterial activity against Salmonella typhi MTCC 733 after 14 hrs by serial dilution method. Conditions: Salmonella enterica, MTCC 733, 14 h. Type of test: functional, Salmonella enterica subsp. enterica serovar Typhi.
Test [5] concerns Candida albicans. The test can be described thus: Antifungal activity against Candida albicans MTCC 227 after 30 hrs by serial dilution method. Type of test: functional. Conditions: MTCC 227, 30 h.
For test [6], the system named is Bacillus subtilis. The test is described as follows: Antibacterial activity against Bacillus subtilis MTCC 441 assessed as zone of inhibition at 100 ug/ml after 14 hrs by cup plate method. In kind it is functional. The following applies: MTCC 441, 14 h, read-out: IZ.
In test [7] the test system is Klebsiella pneumoniae. The test can be described thus: Antibacterial activity against Klebsiella pneumoniae MTCC 432 assessed as zone of inhibition at 100 ug/ml after 14 hrs by cup plate method. Type of test: functional. The following applies: MTCC 432, 14 h, read-out: IZ.
Test [8] concerns Staphylococcus aureus. The test is described as follows: Antibacterial activity against Staphylococcus aureus MTCC 096 after 14 hrs by serial dilution method. In kind it is functional. Conditions: MTCC 096, 14 h.
Test [9] deals with Aspergillus fumigatus. The test is described as follows: Antifungal activity against Aspergillus fumigatus MTCC 343 after 30 hrs by serial dilution method. In kind it is functional. Conditions: MTCC 343, 30 h.
Test [10] concerns Aspergillus flavus. The test is described as follows: Antifungal activity against Aspergillus flavus MTCC 277 assessed as zone of inhibition at 100 ug/ml after 30 hrs by cup plate method. Type of test: functional. Conditions: MTCC 277, 30 h, read-out: IZ.
The test system of test [11] is Aspergillus flavus. The test can be described thus: Antifungal activity against Aspergillus flavus MTCC 277 after 30 hrs by serial dilution method. Type of test: functional. Conditions: MTCC 277, 30 h.
For test [12], the system named is Salmonella typhi. The test is described as follows: Antibacterial activity against Salmonella typhi MTCC 733 assessed as zone of inhibition at 100 ug/ml after 14 hrs by cup plate method. Type of test: functional, Salmonella enterica subsp. enterica serovar Typhi. Conditions: Salmonella enterica, MTCC 733, 14 h; read-out: IZ.
For test [13], the system named is Escherichia coli. The test is described as follows: Antibacterial activity against Escherichia coli MTCC 443 assessed as zone of inhibition at 100 ug/ml after 14 hrs by cup plate method. In kind it is functional. The following applies: MTCC 443, 14 h, read-out: IZ.
The test system of test [14] is Aspergillus niger. The test can be described thus: Antifungal activity against Aspergillus niger MTCC 282 after 30 hrs by serial dilution method. In kind it is functional. Conditions: MTCC 282, 30 h.
In test [15] the test system is Klebsiella pneumoniae. The test is described as follows: Antibacterial activity against Klebsiella pneumoniae MTCC 432 after 14 hrs by serial dilution method. Type of test: functional. Conditions: MTCC 432, 14 h.
Test [16] relates to Escherichia coli. The test can be described thus: Antibacterial activity against Escherichia coli MTCC 443 after 14 hrs by serial dilution method. In kind it is functional. Conditions: MTCC 443, 14 h.
For test [17], the system named is Aspergillus fumigatus. The test can be described thus: Antifungal activity against Aspergillus fumigatus MTCC 343 assessed as zone of inhibition at 100 ug/ml after 30 hrs by cup plate method. Type of test: functional. Conditions: MTCC 343, 30 h, read-out: IZ.
Test [18] relates to Aspergillus niger. The test is described as follows: Antifungal activity against Aspergillus niger MTCC 282 assessed as zone of inhibition at 100 ug/ml after 30 hrs by cup plate method. Conditions: MTCC 282, 30 h, read-out: IZ. Type of test: functional.

Turning to `Cc1ccc2c(c1)c(=O)cc(C(F)(F)F)n2CCCCN1C(=O)c2ccccc2C1=O`, the zone of inhibition at 100 µg/mL is 15 mm in the test on Staphylococcus aureus [1]; 15 mm in the test with Candida albicans [2]; 15 mm in the test on Bacillus subtilis [6]; 13 mm in the test on Klebsiella pneumoniae [7]; 12 mm in the test on Aspergillus flavus [10]; 13 mm in the test with Salmonella typhi [12]. Also, the zone of inhibition at 100 µg/mL is below 10 mm with Escherichia coli [13], below 10 mm with Aspergillus fumigatus [17] and 12 mm in the test on Aspergillus niger [18]. For the same molecule, the MIC turned out to be 6.25 µg/mL (≈ 14.6 µM) with Bacillus subtilis [3]; 12.5 µg/mL (≈ 29.2 µM) against Salmonella typhi [4]; 6.25 µg/mL (≈ 14.6 µM) in the test with Candida albicans [5]; 6.25 µg/mL (≈ 14.6 µM) in the test on Staphylococcus aureus [8]; 25 µg/mL (≈ 58.4 µM) in the test with Aspergillus fumigatus [9]; 12.5 µg/mL (≈ 29.2 µM) in the test with Aspergillus flavus [11]. Also, the MIC in the test with Aspergillus niger [14] is 12.5 µg/mL (≈ 29.2 µM); against Klebsiella pneumoniae [15], 12.5 µg/mL (≈ 29.2 µM); with Escherichia coli [16] it was 25 µg/mL (≈ 58.4 µM).

Regarding `COc1ccc2c(c1)c(=O)cc(C(F)(F)F)n2CCCCN1C(=O)c2ccccc2C1=O`, the zone of inhibition at 100 µg/mL in the test with Staphylococcus aureus [1] is 16 mm; in the test on Candida albicans [2], 15 mm; in the test on Bacillus subtilis [6], 13 mm; with Klebsiella pneumoniae [7], 16 mm; in the test with Aspergillus flavus [10], below 10 mm; in the test on Salmonella typhi [12], below 10 mm. Also, the zone of inhibition at 100 µg/mL with Escherichia coli [13] is below 10 mm; with Aspergillus fumigatus [17] it was below 10 mm; in the test on Aspergillus niger [18] it was 12 mm. Further, the MIC with Bacillus subtilis [3] stood at 12.5 µg/mL (≈ 28.1 µM); with Salmonella typhi [4] it was 25 µg/mL (≈ 56.3 µM); in the test on Candida albicans [5], 6.25 µg/mL (≈ 14.1 µM); with Staphylococcus aureus [8], 6.25 µg/mL (≈ 14.1 µM); in the test on Aspergillus fumigatus [9], 25 µg/mL (≈ 56.3 µM); with Aspergillus flavus [11], 25 µg/mL (≈ 56.3 µM). The MIC against Aspergillus niger [14] was found to be 12.5 µg/mL (≈ 28.1 µM); in the test with Klebsiella pneumoniae [15] it was 6.25 µg/mL (≈ 14.1 µM); against Escherichia coli [16] it was 50 µg/mL (≈ 113 µM).

In the case of `O=C1c2ccccc2C(=O)N1CCCCOc1cc(C(F)(F)F)nc2ccccc12`, the zone of inhibition at 100 µg/mL in the test with Staphylococcus aureus [1] is 16 mm; with Candida albicans [2] it was 17 mm; in the test on Bacillus subtilis [6] it was 16 mm; in the test with Klebsiella pneumoniae [7] it was 12 mm; in the test with Aspergillus flavus [10], below 10 mm; in the test with Salmonella typhi [12] it was below 10 mm. The zone of inhibition at 100 µg/mL in the test on Escherichia coli [13] is below 10 mm; in the test on Aspergillus fumigatus [17] it was 12 mm; in the test on Aspergillus niger [18], 17 mm. For the same molecule, the minimum inhibitory concentration (MIC) stood at 6.25 µg/mL (≈ 15.1 µM) with Bacillus subtilis [3]; 25 µg/mL (≈ 60.3 µM) in the test on Salmonella typhi [4]; 6.25 µg/mL (≈ 15.1 µM) with Candida albicans [5]; 6.25 µg/mL (≈ 15.1 µM) with Staphylococcus aureus [8]; 12.5 µg/mL (≈ 30.2 µM) against Aspergillus fumigatus [9]; 25 µg/mL (≈ 60.3 µM) in the test on Aspergillus flavus [11]. In addition, the MIC worked out at 6.25 µg/mL (≈ 15.1 µM) in the test with Aspergillus niger [14], 12.5 µg/mL (≈ 30.2 µM) against Klebsiella pneumoniae [15] and 50 µg/mL (≈ 121 µM) against Escherichia coli [16].

For `O=C1c2ccccc2C(=O)N1CCCCOc1cc(C(F)(F)F)nc2ccc(F)cc12`, the zone of inhibition at 100 µg/mL in the test with Staphylococcus aureus [1] stood at 15 mm; with Candida albicans [2] it was 15 mm; with Bacillus subtilis [6], 15 mm; in the test with Klebsiella pneumoniae [7], 12 mm; in the test on Aspergillus flavus [10] it was 12 mm; in the test with Salmonella typhi [12], 12 mm. Besides, the zone of inhibition at 100 µg/mL with Escherichia coli [13] is below 10 mm; in the test on Aspergillus fumigatus [17] it was 12 mm; in the test with Aspergillus niger [18] it was 17 mm. Besides, the MIC in the test on Bacillus subtilis [3] is 6.25 µg/mL (≈ 14.5 µM); against Salmonella typhi [4], 12.5 µg/mL (≈ 28.9 µM); with Candida albicans [5] it was 6.25 µg/mL (≈ 14.5 µM); against Staphylococcus aureus [8] it was 6.25 µg/mL (≈ 14.5 µM); against Aspergillus fumigatus [9], 12.5 µg/mL (≈ 28.9 µM); in the test with Aspergillus flavus [11], 12.5 µg/mL (≈ 28.9 µM). Moreover, the MIC with Aspergillus niger [14] was 6.25 µg/mL (≈ 14.5 µM); with Klebsiella pneumoniae [15], 12.5 µg/mL (≈ 28.9 µM); against Escherichia coli [16], 25 µg/mL (≈ 57.8 µM).

Values taken from ChEMBL document CHEMBL2380193, “New trifluoromethyl quinolone derivatives: synthesis and investigation of antimicrobial properties” (2013).
